# Several values for one entry are separate records, joined by “and”; a condition that tells them apart may be missing. Equal values may be shown once.
# Tests used:
# DBP = assay: Gene expression in rat brain after stimulant treatment (Affymetrix U34A GeneChip), prefrontal cortex; conditions: 24 h, read-out: Fold Induction of DBP
# Procedure: (§1) In experiments conducted during the development of the present invention, the rat animal model was used. This model is commonly accepted by those in the art for experiments involving psychiatric disorders. In some experiments, rats were treated with a single dose of methamphetamine (4 mg/kg) and sacrificed 24 hours later. This timepoint was chosen as that most likely to detect changes of relevance to mania and psychosis. It was hypothesized that at 24 hours, most short term gene induction relevant to acute intoxication and behavioral activation would have subsided. […] As mania and psychosis are typically chronic processes in man, more persistent gene changes are more likely to be central to pathophysiological mechanisms. Gene expression was examined in the prefrontal cortex and amygdala, using the Afymetrix U34A GeneChip, which interrogates approximately 7,000 known genes and 1,000 ESTs (expressed sequence tags) using an oligonucleotide nicroarray (See, Lipshutz et al., Nat. Genet. 21:20 [1999]). These brain regions were chosen based on the extensive literature that highlights their central role in cognition and emotion (See e.g., Heimer and Alheid, Adv. Exp. Med. Biol. 1:295 [1991]).
# (§2) A two-fold increase or decrease in expression was chosen as a conventional empirical cut-off. Thus, at least a two-fold change in each of two independent animal experiments was used to select those genes with the most robust and reproducible change in expression. In each experiment, pooled tissues from three methamphetamine-treated and three control rats were used. In these analyses, standard default settings of the Affymetrix GeneChip Expression Algorithm were used. A gene had to be called “Present” and “Changed,” in at least one out of two experiments and had to have an Average Difference Change greater than 50, as well as a fold change greater than 2 in two out of two experiments. […] The genes that were induced more than two-fold in both experiments were also identified by their GenBank accession numbers, as indicated in Tables 1 and 2.
# (§3) After 24 hours, the rats were humanely sacrificed and the brains were harvested.
# (§4) Tissues from each brain region from the three animals in each experimental group were pooled (i.e., test and control animals). Total RNA was isolated from the tissue using standard protocols known in the art. Briefly, STAT-60 extraction buffer, and phenol/chloroform extraction was used. cDNA was synthesized and used as templates to produce biotin-labelled antisense cRNAs using an in vitro transcription reaction. After fragmentation, the CRNA hybridization cocktail was prepared, cleaned, and applied to the Affymetrix GeneChip oligonucleotide array.
# (§5) A two-fold increase or decrease in expression was chosen as a conventional empirical cut-off. […]
# FDFT1 = assay: as above; conditions: 24 h, read-out: Fold Induction of FDFT1
# Procedure: as §1, §2, §3, §4, §5
# GRK3 = assay: as above; conditions: 24 h, read-out: Fold Induction of GRK3
# Procedure: as §1, §2, §3, §4, §5
# MALS-1 = assay: as above; conditions: 24 h, read-out: Fold Induction of MALS-1
# Procedure: as §1, §2, §3, §4, §5
# ADORA3 = assay: Gene expression in rat brain after stimulant treatment (Affymetrix U34A GeneChip), amygdala; conditions: 24 h, read-out: Fold Induction of ADORA3
# Procedure: as §1, §2, §3, §4
# (§6) A two-fold increase or decrease in expression was chosen as a conventional empirical cut-off. Thus, at least a two-fold change in each of two independent animal experiments was used to select those genes with the most robust and reproducible change in expression. In these analyses, standard default settings of the Affymetrix GeneChip Expression Algorithm were used.
# FCGRT = assay: as above; conditions: 24 h, read-out: Fold Induction of FCGRT
# Procedure: as §1, §2, §3, §4, §6
# FEZ2 = assay: as above; conditions: 24 h, read-out: Fold Induction of FEZ2
# Procedure: as §1, §2, §3, §4, §6
# HSPB1 = assay: as above; conditions: 24 h, read-out: Fold Induction of HSPB1
# Procedure: as §1, §2, §3, §4, §6
# IGF1 = assay: as above; conditions: 24 h, read-out: Fold Induction of IGF1
# Procedure: as §1, §2, §3, §4, §6
# NDUFS8 = assay: as above; conditions: 24 h, read-out: Fold Induction of NDUFS8
# Procedure: as §1, §2, §3, §4, §6
# NTRK3 = assay: as above; conditions: 24 h, read-out: Fold Induction of NTRK3
# Procedure: as §1, §2, §3, §4, §6
# POLR2F = assay: as above; conditions: 24 h, read-out: Fold Induction of POLR2F
# Procedure: as §1, §2, §3, §4, §6
# SULT1A1 = assay: as above; conditions: 24 h, read-out: Fold Induction of SULT1A1
# Procedure: as §1, §2, §3, §4, §6
# FGFR1 = assay: Gene expression in rat brain after stimulant treatment (Affymetrix U34A GeneChip); assay type: in vivo; conditions: 24 hours after single dose 4 mg/kg
# Procedure: as §1
# (§7) A two-fold increase or decrease in expression was chosen as a conventional empirical cut-off. Thus, at least a two-fold change in each of two independent animal experiments was used to select those genes with the most robust and reproducible change in expression. In each experiment, pooled tissues from three methamphetamine-treated and three control rats were used. In these analyses, standard default settings of the Affymetrix GeneChip Expression Algorithm were used. A gene had to be called “Present” and “Changed,” in at least one out of two experiments and had to have an Average Difference Change greater than 50, as well as a fold change greater than 2 in two out of two experiments. […] The genes that were induced more than two-fold in both experiments were also identified by their GenBank accession numbers, as indicated in Tables 1 and 2. […]
# GRK2 = assay: as above; assay type: in vivo; conditions: 24 hours after single dose 4 mg/kg, one value per each of two experiments
# Procedure: as §1, §7
smiles,measurement,setting,value
CN[C@@H](C)Cc1ccccc1 [methamphetamine],fold induction at 4 mg/kg,DBP,7
same,fold induction at 4 mg/kg,FDFT1,2.9
same,fold induction at 4 mg/kg,GRK3,14.2
same,fold induction at 4 mg/kg,MALS-1,2.9
same,fold induction at 4 mg/kg,ADORA3,2.7
same,fold induction at 4 mg/kg,FCGRT,3.2
same,fold induction at 4 mg/kg,FEZ2,2.3
same,fold induction at 4 mg/kg,HSPB1,2.8
same,fold induction at 4 mg/kg,IGF1,3
same,fold induction at 4 mg/kg,NDUFS8,20.8
same,fold induction at 4 mg/kg,NTRK3,2.7
same,fold induction at 4 mg/kg,POLR2F,3.9
same,fold induction at 4 mg/kg,SULT1A1,4.3
same,average fold change of FGFR1 expression,FGFR1; average of two experiments,4.1 fold
same,fold increase of FGFR1 expression in one of the two experiments,FGFR1; one of the two experiments,1.8 fold
same,fold changes in GRK2 expression,GRK2,1.1 fold and 1.0 fold

# Reference: patent publication US7488576B2, “Methods for diagnosis and treatment of psychiatric disorders” (The Regents of the University of California, priority 2000, dated 2009)
